# Test system: basophilic granulocytes
# Settings: fMLP 10^-7 M, 30 minutes at 37° C., typical values
# Procedure: Peripheral blood (heparinised) of the patient is incubated with various concentrations of the suspected allergen at 37° C. […] The detection is carried out by a three colour immunofluorescence and flow cytometric analysis. The chemotactic peptide fMLP serves as a positive control and a buffer solution (PBS) is used as the negative control.
# The sample to be examined is divided into aliquots of 100 μl in each case. In the case of high leukocyte numbers (WBC of 10-20,000 C/μl) it is possible to use a smaller sample volume e.g. 50 μl. Multiple test mixtures are not necessary.
# ALK-depot SQ (Scherax) mixture of 6 grasses+rye is used at concentrations of 10,000, 1,000, 100 and 10 U/ml. ALK-prick SQ (Scherax) bee venom and ALK-prick SQ (Scherax) wasp venom are used at concentrations of 10, 1, 0.1 and 0.01 μg/ml. Latex allergens, PPL (allergopen) and MDM (allergopen) are used in dilutions of 1:10, 1:100 and 1:1,000. Penicillin Grünenthal is used at concentrations of 100, 10, 1 and 0.1 μg/ml. PBS serves as a negative control and fMLP at a concentration of 10^−7 M (i.e. 1:2,000 PBS) is used as the positive control. A sample from a healthy normal test person is also assayed as a further control.
# 100 μl of each of the allergen dilutions is added to an aliquot of the sample, mixed and incubated for 30 minutes at 37° C. in a water bath. Then the mixtures are placed on ice.
# The following antibody solutions are then added.
# a) 20 μl anti gp55-FITC (prediluted)
# b) 20 μl anti IgE-PE (prediluted)
# c) 10 μl anti CD45-cychrome or 20 μl CD45-PerCP
# After antibody addition it is well mixed (vortex) and incubated for 20 minutes on ice while protected from light.
# 2 ml FACS lysing solution (erythrocyte lysis and leukocyte fixation) is then added, it is mixed (vortex) and incubated for 10 minutes at room temperature while protected from light. Subsequently it is centrifuged for 5 min at 1300 rpm or 300 g and decanted.
# The cells are washed by adding 3 ml wash solution (PBS), centrifuging (5 min at 1300 rpm or 300 g) and decanting.
# The sample is measured by flow cytometry for example on an FACS scan instrument. The stability of the measured sample is presumably ≧2 hours on flaked ice in the dark.
# In the SSC/IgE dot plot, a region is set around the cells with low and high side scattered light and strong IgE expression. […] The markers are set such that the evaluation region covers the region of the gp55 positive basophils (the PBS test mixture serves as a negative control). The mean value FL1 is observed in all (also gp55-negative) cell populations. If possible, at least 1000 cells of the subclass of interest (in this case basophils) are recorded. […] It is therefore possible to view the percentage which is adequate for evaluating the test result.
substance,measurement,setting,value
fMLP,% basos,heparinised whole blood,2.35%
same,mean gp55,mean FL1 of all basophils,369
same,mean CD45,mean fluorescence (CD45 expression density) of basophils,349
same,mean IgE,mean fluorescence (IgE density) of basophils,981
same,% gp55,percentage of gp55-positive basophilic granulocytes,30.6%
